Entries after “also recorded” stand apart in the source; their conditions may differ. Ends that are not written are not given here.
Experiments:
Format in all cases: cell-based, human
[1] = system: peptide-pulsed A24-LCL cells; experiment: IFN-gamma ELISPOT assay (positive wells); details: HLA-A24 peptides; as compared to the control
How it was run: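 PBMC-derived DCs from HLA-A*2402 and/or A*0201 donors, pulsed with 20 micro g/ml peptide plus 3 micro g/ml beta 2-microglobulin, stimulated autologous CD8+ T cells three times (days 0, 7, 14). On day 21, responders were tested against peptide-pulsed A24-LCL or T2 cells by IFN-gamma ELISPOT. Values are reported as positive wells/wells tested; CTL lines confirmed by ELISA.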

[2] = system: peptide-pulsed A24-LCL cells; experiment: CTL clones by limiting dilution, specific CTL activity; details: HLA-A24 peptides; vs target without peptide pulse
Protocol: (§1) The dilutions were made to have 0.3, 1, and 3 CTLs/well in 96 round-bottomed micro titer plate (Nalge Nunc International). CTLs were cultured with 7×10^4 cells/well of 2 kinds of human B-lymphoblastoid cell lines, 30 ng/ml of anti-CD3 antibody, and 125 U/ml of IL-2 in total of 150 micro 1/well of AIM-V containing 5% AS. 50 micro 1/well of IL-2 was added to the medium 10 days later so that IL-2 became 125 U/ml in the final concentration. CTL activity of CTLs was tested on the 14th day, and CTL clones were expanded using the same method above.
(§2) Briefly, peptide-pulsed A24-LCL or T2 cell (1×10^4/well) was prepared as stimulator cells. Cultured Cells in 48 wells or CTL clones after limiting dilution were used as responder cells. IFN-gamma ELISPOT assay and ELISA assay were performed under manufacture procedure.

[3] = system: 293T transfected with full length INHBB gene and HLA-A*2402; experiment: Specific CTL activity against transfected target cells; details: CTL line or clone raised by the peptide, vs control transfectants
Protocol: as §2
(§3) The cDNA encoding an open reading frame of target genes or HLA-A02 or HLA-A24 was amplified by PCR. The PCR-amplified product was cloned into pcDNA3.1 myc-His vector (Invitrogen). The plasmids were transfected into the target cells, HLA-A02 and HLA-A24-null normal human cell line COS7 or 293T using lipofectamine (Invitrogen) according to the manufacturer's recommended procedures. Alternatively, the plasmid contained the target genes were transfected into A24-LCL by electroporation using GenePulserII (Biorad). Briefly, 2.5×10^6 A24-LCL cells were pulsed with 10 mcg prasmid at 140V and 1000 micro F. After 2 days from transfection, the transfected cells were treated with Cell dissociation solution and used as the target cells for CTL activity assay.
The established CTL line raised against these peptides were examined for their ability to recognize the target cells expressing INHBB and HLA-A*2402.

[4] = system: peptide-pulsed A24-LCL cells; experiment: CTL line establishment, IFN-gamma ELISA; details: HLA-A24 peptides; vs target without peptide pulse
How it was run: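 Peptide-pulsed A24-LCL or T2 cells (1×10^4/well) served as stimulators for responder cells from 48-well cultures or limiting-dilution CTL clones. Positive wells scored by IFN-gamma ELISPOT; CTL line establishment from positive wells confirmed by IFN-gamma ELISA; lines expanded with anti-CD3 (40 ng/ml), IL-2 and MMC-inactivated B-LCL feeders.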

[5] = system: COS7 transfected with full length ECT2 gene and HLA-A*2402; experiment: Specific CTL activity against transfected target cells; details: CTL clone or line raised by the peptide, vs control transfectants
Protocol: as §2, §3
The established CTL line raised against these peptides were examined for their ability to recognize the target cells expressing ECT2 and HLA-A*2402. […] COS7 transfected with full length ECT2 but not HLA-A*2402 and COS7 transfected with HLA-A*2402 but not full length ECT2 (replaced other gene e.g. URLC10 or INHBB) were prepared as controls.

[6] = system: COS7 transfected with full length CDH3 gene and HLA-A*2402; experiment: as above; details: CTL clones raised by the peptide, vs single transfectants
Protocol: as §2, §3
The established CTL line raised against these peptides were examined for their ability to recognize the target cells expressing CDH3 and HLA-A*2402. […] COS7 transfected with full length CDH3 but not HLA-A*2402 and COS7 transfected with HLA-A*2402 but not full length CDH3 were prepared as controls.

peptide-pulsed T2 cells [7] = experiment: CTL line establishment, IFN-gamma ELISA; details: HLA-A02 peptides; vs target without peptide pulse
Protocol: CTLs were expanded in culture using the method similar to that described by Riddell S R, et al., (Walter E A et al., (1995) N Engl J Med 333:1038-44; Riddel S R, et al., (1996) Nature Med. 2:216-23.). A total 5×10^4 of CTLs were resuspended in 25 ml of AIM-V/5% AS with 2 kinds of human B-lymphoblastoid cell lines, inactivated by MMC, in the presence of 40 ng/ml of anti-CD3 monoclonal antibody (Pharmingen). One day after initiating the cultures, 120 IU/ml of IL-2 were added to the cultures. The cultures were fed with fresh AIM-V/5% AS containing 30 IU/ml of IL-2 on days 5, 8 and 11.
as §2
Positive well number indicates the number of wells where specific IFN-gamma production can be detected by IFN-gamma ELISPOT assay. 4 to 8 wells can be prepared from one donor. This is shown as (positive wells number/the number of whole wells tested by IFN-gamma ELISPOT assay). Positive CTL line indicates the number of CTL line established from positive wells. The generation of CTL line is determined by ELISA. This is shown as (established CTL line number/the number of positive wells tested by IFN-gamma ELISPOT assay). No positive donor is not defined by no detectable positive wells, but by no established CTL line. […] No data at positive donor number, positive well number and positive CTL line indicating “−” means that the peptides can't be synthesized for any reason.
CTLs were expanded in culture using the method similar to the one described by Riddell et al. (Walter E A et al., N Engl J Med 1995 Oct. 19, 333(16): 1038-44; Riddell S R et al., Nat Med 1996 Feb., 2(2): 216-23). A total of 5×10^4 CTLs were suspended in 25 ml of AIM-V/5% AS medium with 2 kinds of human B-lymphoblastoid cell lines, inactivated by MMC, in the presence of 40 ng/ml of anti-CD3 monoclonal antibody (Pharmingen). One day after initiating the cultures, 120 IU/ml of IL-2 were added to the cultures. The cultures were fed with fresh AIM-V/5% AS medium containing 30 IU/ml of IL-2 on days 5, 8 and 11 (Tanaka H et al., Br J Cancer 2001 Jan. 5, 84(1): 94-9; Umano Y et al., Br J Cancer 2001 Apr. 20, 84(8): 1052-7; Uchida N et al., Clin Cancer Res 2004 Dec. 15, 10(24): 8577-86; Suda T et al., Cancer Sci 2006 May, 97(5): 411-9; Watanabe T et al., Cancer Sci 2005 August, 96(8): 498-506).
Specifically, peptide-pulsed T2 (1×10^4/well) was prepared as stimulator cells. Cultured cells in 48 wells were used as responder cells. IFN-gamma ELISPOT assay and IFN-gamma ELISA assay were performed under manufacture procedure.

peptide-pulsed T2 cells [8] = experiment: CTL clones by limiting dilution, specific CTL activity; details: HLA-A02 peptides; vs target without peptide pulse
Protocol: as §1, §2

[9] = system: COS7 transfected with full length TTK gene and HLA-A*0201; experiment: Specific CTL activity against transfected target cells; details: vs control transfectants
Protocol: as §2, §3
The established CTL clone raised against these peptides were examined for their ability to recognize the target cells endogenously expressing TTK and HLA-A*0201. […] COS7 transfected with full length TTK but HLA-A*0201, COS7 transfected HLA-A*0201 but not full length of TTK (or replaced full length HIG2 gene) and COS7 transfected with HLA-A*0201 and pulsed with different target epitope peptide, were prepared as controls.

peptide-pulsed T2 cells [10] = experiment: IFN-gamma ELISPOT assay (positive wells); details: HLA-A02 peptides; as compared to the control
How it was run: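 CD8+ T cells from HLA-A*2402 and/or HLA-A*0201 donors were stimulated 1:20 with autologous monocyte-derived DCs pulsed with 20 µg/ml peptide plus β2-microglobulin, in IL-7, with IL-2 added, restimulated on days 7 and 14. On day 21, IFN-γ ELISPOT against peptide-pulsed T2 or A24-LCL cells (1×10^4/well) scored wells as positive, with CTL lines confirmed by ELISA.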

In the case of “SEQ ID NO: 135: HLA-A*2402 binding 10-mer peptide derived from INHBB (RQQFFIDFRL)”, the “IFN-gamma production by IFN-gamma ELISPOT assay” value (shortened to “IFN-gamma production”) [1] is reported as “potent IFN-gamma production”, the “CTL activities of CTL clones against the peptide-pulsed target” value (“CTL activities of CTL clones” below) [2] is reported as “potent and specific CTL activities” and the “Specific CTL activity against 293T transfected with both INHBB and HLA-A24” value ([3]; listed as INHBB-A24-10-305) is reported as “highest specific CTL activity; also recorded: high specific CTL activity”. The “Establishment of CTL line, specific CTL activity against the peptide-pulsed target determined by ELISA” value (shortened to “Establishment of CTL line”) [4] was “CTL lines were established”.
With “SEQ ID NO: 137: HLA-A*2402 binding 10-mer peptide derived from INHBB (RALGAACLLL)” the “IFN-gamma production” value [1] was “potent IFN-gamma production”, the “Specific CTL activity against 293T transfected with both INHBB and HLA-A24” value ([3]; listed as INHBB-A24-10-7) was “highest specific CTL activity” and the “Establishment of CTL line” value [4] was “CTL lines were established”.
For “DFQDsVFNDL (DFQDSVFNDL; not fully specified; printed as DFQDsVFNDL) [SEQ ID NO: 101]”, the “IFN-gamma production” value [1] was “potent IFN-gamma production”, the “Specific CTL activity against COS7 transfected with both ECT2 and HLA-A24” value ([5]; listed as ECT2-A24-10-101) was “highest specific CTL activity; also recorded: high specific CTL activity” and the “Establishment of CTL line” value [4] was “CTL lines were established”.
With “SYVEeEMPQI (SYVEEEMPQI; not fully specified; printed as SYVEeEMPQI) [SEQ ID NO: 100]” the “IFN-gamma production” value [1] was “potent IFN-gamma production”, the “Specific CTL activity against COS7 transfected with both ECT2 and HLA-A24” value ([5]; listed as ECT2-A24-10-40) was “highest specific CTL activity; also recorded: high specific CTL activity” and the “CTL activities of CTL clones” value [2] was “potent and specific CTL activities”. The “Establishment of CTL line” value [4] was “CTL lines were established”.
With “FILPvLGAVL (FILPVLGAVL; not fully specified; printed as FILPvLGAVL) [SEQ ID NO: 344]” the “IFN-gamma production” value [1] was “potent IFN-gamma production”, the “Specific CTL activity against COS7 transfected with both CDH3 and HLA-A24” value ([6]; listed as CDH3-A24-10-655) was “highest specific CTL activity; also recorded: high specific CTL activity” and the “CTL activities of CTL clones” value [2] was “potent and specific CTL activities”. For the same substance, the “Establishment of CTL line” value [4] was “CTL lines were established”.
“DYLNeWGSRF (DYLNEWGSRF; not fully specified; printed as DYLNeWGSRF) [SEQ ID NO: 30]” was tested, and the “IFN-gamma production” value [1] was “potent IFN-gamma production”, the “Specific CTL activity against COS7 transfected with both CDH3 and HLA-A24” value ([6]; listed as CDH3-A24-10-807) was “highest specific CTL activity; also recorded: high specific CTL activity” and the “CTL activities of CTL clones” value [2] was “potent and specific CTL activities”. For the same substance, the “Establishment of CTL line” value [4] was “CTL lines were established”.
In the case of “SEQ ID NO: 228: HLA-A*0201 binding 9-mer peptide derived from TTK (KQIYAIKYV)”, the “Establishment of CTL line” value (peptide-pulsed T2 cells [7]) is reported as “CTL line and clones were established”, the “CTL activities of CTL clones” value (peptide-pulsed T2 cells [8]) is reported as “potent and specific CTL activities” and the “Specific CTL activity against COS7 transfected with both TTK and HLA-A02” value ([9]; listed as TTK-A02-9-547) is reported as “highest specific CTL activity”. For the same substance, the “IFN-gamma production” value (peptide-pulsed T2 cells [10]) was “potent IFN-gamma production”.
For “SEQ ID NO: 233: HLA-A*0201 binding 9-mer peptide derived from TTK (SLGCILYYM)”, the “Establishment of CTL line” value (peptide-pulsed T2 cells [7]) was “CTL line and clones were established”, the “CTL activities of CTL clones” value (peptide-pulsed T2 cells [8]) was “potent and specific CTL activities” and the “Specific CTL activity against COS7 transfected with both TTK and HLA-A02” value ([9]; listed as TTK-A02-9-719) was “high specific CTL activity”. For the same substance, the “Specific CTL activity against COS7 transfected with both TTK and HLA-A02” value ([9]; listed as TTK-A2-9-719) was “highest specific CTL activity” and the “IFN-gamma production” value (peptide-pulsed T2 cells [10]) was “potent IFN-gamma production”.
“SEQ ID NO: 133: HLA-A*2402 binding 10-mer peptide derived from INHBB (LYLKLLPYVL)” was tested, and the “IFN-gamma production” value [1] was “potent IFN-gamma production”, the “Specific CTL activity against 293T transfected with both INHBB and HLA-A24” value ([3]; listed as INHBB-A24-10-180) was “highest specific CTL activity; also recorded: high specific CTL activity” and the “Establishment of CTL line” value [4] was “CTL lines were established”.
